Assay results reported in patent US20250134870A1, “PATHWAY MODULATOR, PHARMACEUTICAL COMPOSITION HAVING SAME, USE THEREOF, AND THERAPEUTIC METHOD USING SAME” (Jiangsu Yahong Meditech Co., Ltd., priority 2021, published 2025).

Experiments:
[1] = system: norepinephrine level; details: cited from earlier work
[2] = system: systolic and diastolic blood pressure; details: 200 mg, phase II clinical study, cited from earlier work
[3] = system: dextran sulfate sodium (DSS)-induced colitis; assay: DSS-induced colitis in mice: body weight, DAI score, colon density (Examples 1, 3); assay type: in vivo, C57BL/6J mice; details: for Colon density: experimental endpoint
Method: 8-10 week old female C57BL/6J mice purchased from Charles River Laboratories were used. The mice were housed in a room at constant temperature (20+2° C.) (5 mice per cage) with a 12-hour light-dark cycle. All protocols were approved by the Institutional Animal Care and Use Committee of WuXi AppTec. These mice were adapted to the housing conditions at the animal experiment center of WuXi AppTec for at least three days prior to the experiment. […] At the experimental endpoint (see hereinafter), mice were euthanized and endpoint samples were obtained. Mice in the normal group were not given 3% DSS aqueous solution to induce colitis and were free to drink blank water. […] The animal body weight and DAI score were assessed under double-blind conditions, that is, the researchers collected the body weight data of mice and observed and scored the stool characteristics and blood stools every day, without knowing the group and dosing regimen. The DAI score was the sum of the weight loss score, stool score and bleeding score. […] The data were analyzed by analysis of variance, specifically by using the following process: using Graph Pad Prism 6.0 software to carry out post-hoc Dunnett's multiple comparison test. […] Data were expressed as mean±S.E.M. The experimental endpoint was 24 hours after administration on Day 8 for the positive drug control group and the Test group 1 #to Test group 7 #of Example 1; the experimental endpoint of the normal group and the solvent group was the same as that of the positive drug control group and Test group 1 #to Test group 7 #.

[4] = system: dextran sulfate sodium (DSS)-induced colitis; assay: DSS-induced colitis in mice, 3.1% DSS: body weight change and DAI (Example 11); assay type: in vivo, C57BL/6 mice; details: 100 mg/kg, qd
Source text: The experimental mice were housed in an SPF grade animal room for three days for adaptation, and randomly divided into 7 groups (6 model groups and 1 control group) of 10 mice in each group. Dosing of mice started on Day 0 and ended on Day 7.
The mouse enteritis model of this Example was established by DSS induction: mice in the model group were provided with a 3.1% DSS (dextran sulfate sodium, molecular weight 36,000-50,000) aqueous solution from Day 0 to Day 7, and the DSS aqueous solution was replaced with freshly prepared solution every day to prevent degradation. Mice in the normal control group were provided with normal water. The experimental period was 9 days, and the mice were euthanized and samples were collected at the experimental endpoint.
The DAI score was assessed daily. The DAI score consisted of 3 parts: body weight change, stool characteristics, and hematochezia (or occult blood) score, and the specific scoring criteria were as shown in Table 49. The DAI scoring of all mice was done by the same staff throughout the experiment.
Mice were euthanized at the experimental endpoint. The colon of mice was dissected, and photograph was taken, the length was measured, and the contents were removed before weighing.
The data were expressed as mean±standard error (X±s). Body weight change and disease activity score were statistically analyzed by two-way ANOVA and comparison between groups were performed by Dunnett's test. Other data were statistically analyzed by one-way ANOVA and comparison between groups were performed by Dunnett's test. All analyses were performed using GraphPad Prism software. * P<0.05, ** P<0.01, *** P<0.005, **** P<0.0001 vs. solvent group.

[5] = system: bleomycin-induced skin fibrosis; assay: Bleomycin-induced skin fibrosis in mice: skin histopathology (dermal thickness, capillary density score, inflammatory cell infiltration score); assay type: in vivo, male C57BL/6 mice; details: 50 mg/kg PO BID, 28 days
Method: The skin tissue of the lesioned skin was subjected to dehydration, embedding and sectioning according to the pathology SOP, and the tissue was stained by HE and Masson staining. Histopathological analysis was performed according to the following methods:
Masson-stained sections were panoramically scanned by using Nanozomer S210 and the scanned images were subjected to quantitative analysis using Visiopharm VIS6.0 software. The degree of fibrosis was currently represented by the dermal thickness after Masson staining.
The fields of observation was selected in the dermis layer of the lesioned area (the number of fields selected was determined according to the size of the lesioned area) and scored according to the area occupied by capillaries in the area: • 0: No capillary formed • 1: The proportion of capillaries formed was less than 25%; • 2: The proportion of capillaries formed was 25-50%; • 3: The proportion of capillaries formed was 50-75%; • 4: The proportion of capillaries formed was greater than 75%. 3.8.3 Inflammatory cell infiltration score of dermis layer
The fields of observation was selected in the dermis layer of the lesioned area (the number of fields selected was determined according to the size of the lesioned area) and scored according to the degree of inflammatory cell infiltration: • 0: No inflammatory cell infiltration: • 1: A small amount of focal inflammatory cell infiltration; • 2: Scattered diffuse inflammatory cell infiltration: • 3: A large amount of diffuse inflammatory cell infiltration; • 4: A large amount of agglomerated inflammatory cell infiltration.

[6] = system: imiquimod (IMQ)-induced psoriasis; assay: Imiquimod (IMQ)-induced psoriasis in mice: erythema, scales, thickness, total score, AUC (Example 8); assay type: in vivo, Balb/c mice; set-up: key to erythema score / scales score / thickness score: 0 = none, 1 = mild, 2 = moderate, 3 = obvious/severe; key to total score of erythema + scales + thickness: sum of three 0-3 scores (erythema + scales + thickening), 0-9; details: for erythema score / scales score: BID × 2 days; for thickness score / total score of erythema + scales + thickness: positive control group
Method: All mice were shaved with a pet shaver to get an area of 2×3 cm on the back one day before the start of the experiment.
65 animals were randomly divided into groups according to body weight, and the dosing regimen was as follows.
Imiquimod (IMQ) cream: 62.5 mg of IMQ cream for each mouse in G2 to G7; Dexamethasone (DEX) ointment: 70 mg of ointment for each mouse in G4;
Tofacitinib: Tofacitinib was dissolved in dimethyl sulfoxide to 5 mg/mL, and 50 μL was added to IMQ cream for daily treatment.
Mice in Groups 2 to 7 received daily topical doses of 62.5 mg of IMQ cream on their shaved back from Day 0 to Day 7.
Dosing of the test compounds and reference substance was carried out according to Table 29 for 7 consecutive days.
To assess the severity of inflammation of skin on the back, the skin on the back was scored according to Table 30. Erythema, scales and thickening were scored independently on a scale of 0 to 3, 0, none; 1. mild; 2. moderate; 3. obvious/severe.
The inhibition rate was calculated according to the following formula: Inhibition rate=[AUC (solvent)−AUC (treatment)]/AUC (solvent)×100%. Wherein, solvent referred to the solvent group corresponding to the route of administration.

[7] = rats with spontaneous hypertension
[8] = Day 0, 12.5 mg/kg topical QD × 5 days
[9] = Day 1, 12.5 mg/kg topical QD × 5 days
[10] = Day 2, 12.5 mg/kg topical QD × 5 days
[11] = Day 3, 12.5 mg/kg topical QD × 5 days
[12] = Day 4, 12.5 mg/kg topical QD × 5 days
[13] = Day 5, 12.5 mg/kg topical QD × 5 days
[14] = Day 6, 12.5 mg/kg topical QD × 5 days
[15] = Day 7, 12.5 mg/kg topical QD × 5 days

## NCCc1c[nH]c(=S)n1[C@H]1COc2c(F)cc(F)cc2C1 [Etamicastat]
[1]; compared with Nepicastat
  brain-blood-barrier penetration: lower levels of brain-blood-barrier penetration
[1]; [7]
  effect on brain tissue (norepinephrine level): no effect on brain tissue
  norepinephrine level in peripheral sympathetic innervation tissues: reduce the norepinephrine level in peripheral sympathetic innervation tissues
[2]; 10 days of treatment
  tolerance and safety: good tolerance and safety
[2]; after 10 days of treatment
  systolic and diastolic blood pressure: reduced systolic and diastolic blood pressure in a dose-dependent manner
[3]; 10 mg/kg PO QD × 8 days
  Body weight on Day 7, g: 19.18 g
  Body weight on Day 7/initial body weight, %: 91.92%
  Body weight on Day 8, g: 18.20 g
  Body weight on Day 8/initial body weight, %: 87.27%
  DAI score on Day 8: 6.20
  Colon density: 32.24 mg/cm
[3]; 30 mg/kg PO QD × 8 days
  Body weight on Day 7, g: 19.48 g
  Body weight on Day 7/initial body weight, %: 92.19%
  Body weight on Day 8, g: 18.89 g
  Body weight on Day 8/initial body weight, %: 89.13%
  DAI score on Day 8: 6.56
  Colon density: 34.23 mg/cm
[3]; 100 mg/kg PO QD × 8 days
  Body weight on Day 7, g: 20.08 g
  Body weight on Day 8, g: 19.19 g
  Body weight on Day 8/initial body weight, %: 91.63%
  DAI score on Day 8: 5.00
[3]; Nepicastat 30, Etamicastat 100, Zamicastat 100 mg/kg PO QD × 8 days (Test groups 1#, 4#, 7#) vs solvent group
  severity of DSS-induced colitis and disease activity: ameliorated the severity of DSS-induced colitis and reduced disease activity

## O=C(O)/C=C/C(=O)O [Fumaric acid]
[4]
  symptoms caused by DSS-induced colitis (diarrhea, hematochezia): slightly ameliorate the symptoms of diarrhea and hematochezia
[4]; vs solvent group
  DSS-induced body weight loss: showed a trend of alleviating DSS-induced body weight loss
[4]; vs solvent group, relatively obvious on Day 4 and Day 5
  disease activity score (DAI): slightly improved

## COC(=O)c1ccc2c(c1)NC(=O)/C2=C(\Nc1ccc(N(C)C(=O)CN2CCN(C)CC2)cc1)c1ccccc1 [Nintedanib]
[5]
  inflammatory cell infiltration of the lesioned skin: visibly reduce
  subdermal capillary hyperplasia: visibly reduce

## C[C@@H]1CCN(C(=O)CC#N)C[C@@H]1N(C)c1ncnc2[nH]ccc12 [Tofacitinib]
[6]; 12.5 mg/kg topical QD × 5 days, then BID × 2 days
  efficacy on clinical score: showed efficacy after doubling the dose
[6]; [8]
  erythema score: 0
  scales score: 0
[6]; Day 0
  thickness score: 0
  total score of erythema + scales + thickness: 0
[6]; [9]
  erythema score: 0
  scales score: 0
[6]; Day 1
  thickness score: 0.8
  total score of erythema + scales + thickness: 0.8
[6]; [10]
  erythema score: 1.4
  scales score: 0
[6]; Day 2
  thickness score: 1.4
  total score of erythema + scales + thickness: 2.8
[6]; [11]
  erythema score: 1.9
  scales score: 0.4
[6]; Day 3
  thickness score: 2.2
  total score of erythema + scales + thickness: 4.5
[6]; [12]
  erythema score: 2.2
  scales score: 0.7
[6]; Day 4
  thickness score: 2
  total score of erythema + scales + thickness: 4.9
[6]; [13]
  erythema score: 2
  scales score: 1.4
[6]; Day 5
  thickness score: 2.2
  total score of erythema + scales + thickness: 5.6
[6]; [14]
  erythema score: 1.8
  scales score: 1.3
[6]; Day 6
  thickness score: 2
  total score of erythema + scales + thickness: 5.1
[6]; [15]
  erythema score: 1.7
  scales score: 1.6
[6]; Day 7
  thickness score: 1.9
  total score of erythema + scales + thickness: 5.2
